Source: US9434687B2, “Detection of synthetic cannabinoids” (priority 2011, dated 2016)
Where two headings read alike, the source gives them in different places.

Experiments:
Type in all cases: binding, sheep
[1] = test system: IgG fraction of antiserum raised to Immunogen I
Summary of the method: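 Plates were coated with the IgG fraction of sheep antiserum raised to Immunogen I and incubated with standards (JWH-018, 0-40 ng/ml) plus hapten-HRP conjugate for 1 h at 25° C. Detection used TMB, read at 450 nm. IC50 was taken from a 4-parameter fit as the concentration giving half the zero-standard OD.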

[2] = test system: IgG fraction of antiserum raised to Immunogen VIII
[3] = test system: IgG fraction of antiserum raised to Immunogen VII; details: Antibody to Immunogen VII; cross-reactants at 100 ng/ml; 1000 ng/ml; standard JWH-015
[4] = test system: IgG fraction of antiserum raised to Immunogen IV
[5] = Antibody to Immunogen I, cross-reactants at 100 ng/ml, 1000 ng/ml, standard JWH-018
[6] = Antibody to Immunogen VIII, cross-reactants at 100 ng/ml, 1000 ng/ml, standard JWH-018
[7] = Antibody to Immunogen IV, cross-reactants at 100 ng/ml, 1000 ng/ml, standard JWH-018

CCCCCn1cc(C(=O)c2cccc3ccccc23)c2c(O)cccc21 [4-OH JWH-018, JWH-018 4-hydroxyindole metabolite]
% B/B0 [1, 5]: 46.39%
% B/B0 [2, 6]: 16.72%
% B/B0 [3]: 89.96%
% B/B0 [4, 7]: 20.42%

CCCCCn1cc(C(=O)c2cccc3ccccc23)c2cc(O)ccc21 [5-OH JWH-018, JWH-018 5-hydroxyindole metabolite]
% B/B0 [1, 5]: 11.79%
% B/B0 [2, 6]: 87.67%
% B/B0 [3]: 85.76%
% B/B0 [4, 7]: 78.56%

CCCCCn1cc(C(=O)c2cccc3ccccc23)c2ccc(O)cc21 [6-OH JWH-018, JWH-018 6-hydroxyindole metabolite]
% B/B0 [1, 5]: 8.07%
% B/B0 [2, 6]: 89.86%
% B/B0 [3]: 68.17%
% B/B0 [4, 7]: 51.00%

O=C(c1cccc2ccccc12)c1cn(CCCCCF)c2ccccc12 [AM-2201, 1-(5-Fluoropentyl)indol-3-yl (1-naphthyl) methanone]
% B/B0 [1, 5]: 3.72%
% B/B0 [2, 6]: 16.74%
% B/B0 [3]: 55.28%
% B/B0 [4, 7]: 6.20%

O=C(c1cccc2ccccc12)c1cn(CCCCCO)c2ccccc12 [JWH-018 N-(5-hydroxypentyl) metabolite]
% B/B0 [1, 5]: 3.50%
% B/B0 [2, 6]: 57.37%
% B/B0 [3]: 53.32%
% B/B0 [4, 7]: 78.42%

O=C(O)CCCCn1cc(C(=O)c2cccc3ccccc23)c2ccccc21 [JWH-018 N-pentanoic acid metabolite]
% B/B0 [1, 5]: 4.51%
% B/B0 [2, 6]: 100.31%
% B/B0 [3]: 53.02%
% B/B0 [4, 7]: 99.89%

CCCCCn1cc(C(=O)c2cccc3ccccc23)c2ccccc21 [JWH-018]
% B/B0 [1, 5]: 5.19%
% B/B0 ([1]; JWH-018 0.625 ng/ml): 77%
% B/B0 ([1]; JWH-018 1.25 ng/ml): 62%
% B/B0 ([1]; JWH-018 2.5 ng/ml): 44%
% B/B0 ([1]; JWH-018 5 ng/ml): 31%
% B/B0 ([1]; JWH-018 10 ng/ml): 20%
% B/B0 ([1]; JWH-018 20 ng/ml): 14%
% B/B0 ([1]; JWH-018 40 ng/ml): 9%
IC50 ([1]; Table 7 standard curve, standard concentration which produces 50% B/B0): 2.016 ng/mL
% B/B0 [2, 6]: 17.66%
% B/B0 ([2]; JWH-018 1 ng/ml): 79%
% B/B0 ([2]; JWH-018 3 ng/ml): 63%
% B/B0 ([2]; JWH-018 5 ng/ml): 51%
% B/B0 ([2]; JWH-018 10 ng/ml): 40%
% B/B0 ([2]; JWH-018 20 ng/ml): 29%
% B/B0 ([2]; JWH-018 40 ng/ml): 22%
% B/B0 ([2]; JWH-018 80 ng/ml): 16%
IC50 ([2]; Table 9 standard curve, standard concentration which produces 50% B/B0): 5.230 ng/mL
% B/B0 [3]: 67.66%
% B/B0 [4, 7]: 6.80%
% B/B0 ([4]; JWH-018 1.25 ng/ml): 87%
% B/B0 ([4]; JWH-018 2.5 ng/ml): 68%
% B/B0 ([4]; JWH-018 5 ng/ml): 42%
% B/B0 ([4]; JWH-018 10 ng/ml): 26%
% B/B0 ([4]; JWH-018 20 ng/ml): 16%
% B/B0 ([4]; JWH-018 40 ng/ml): 10%
% B/B0 ([4]; JWH-018 80 ng/ml): 7%
IC50 ([4]; Table 8 standard curve, standard concentration which produces 50% B/B0): 4.133 ng/mL

CCCCn1cc(C(=O)c2cccc3ccccc23)c2ccccc21 [JWH-073]
% B/B0 [1, 5]: 3.56%
% B/B0 [2, 6]: 25.50%
% B/B0 [3]: 58.34%
% B/B0 [4, 7]: 13.63%

O=C(c1cccc2ccccc12)c1cn(CCN2CCOCC2)c2ccccc12 [JWH-200]
% B/B0 [1, 5]: 3.51%
% B/B0 [2, 6]: 98.81%
% B/B0 [3]: 42.85%
% B/B0 [4, 7]: 77.08%

CCCCCn1cc(C(=O)c2ccc(Cl)c3ccccc23)c2ccccc21 [JWH-398]
% B/B0 [1, 5]: 60.31%
% B/B0 [2, 6]: 18.66%
% B/B0 [3]: 94.47%
% B/B0 [4, 7]: 6.00%

O=C(c1cccc2ccccc12)c1c[nH]c2ccccc12 [N-desalkyl JWH-018, 3-(1-naphthoyl)-1H-Indole]
% B/B0 [1, 5]: 15.63%
% B/B0 [2, 6]: 90.49%
% B/B0 [3]: 80.08%
% B/B0 [4, 7]: 95.55%
